Data on 24 compounds can be found in patent publication US20110207784A1, “OXADIAZOLE-2-OXIDES AS ANTISCHISTOSOMAL AGENTS” (THE UNITED STATES OF AMERICA, AS REPRESENTED BY THE …, priority 2008, published 2011).

The IC50 is the midpoint of a concentration-inhibition curve.

For one test, the target named is Recombinant thioredoxin glutathione reductase (TGR) (Schistosoma mansoni, UniProt Q962Y6). In words: biochemical. The format is biochemical, S. mansoni.
Sequence of Recombinant thioredoxin glutathione reductase (TGR) (Q962Y6 1-598): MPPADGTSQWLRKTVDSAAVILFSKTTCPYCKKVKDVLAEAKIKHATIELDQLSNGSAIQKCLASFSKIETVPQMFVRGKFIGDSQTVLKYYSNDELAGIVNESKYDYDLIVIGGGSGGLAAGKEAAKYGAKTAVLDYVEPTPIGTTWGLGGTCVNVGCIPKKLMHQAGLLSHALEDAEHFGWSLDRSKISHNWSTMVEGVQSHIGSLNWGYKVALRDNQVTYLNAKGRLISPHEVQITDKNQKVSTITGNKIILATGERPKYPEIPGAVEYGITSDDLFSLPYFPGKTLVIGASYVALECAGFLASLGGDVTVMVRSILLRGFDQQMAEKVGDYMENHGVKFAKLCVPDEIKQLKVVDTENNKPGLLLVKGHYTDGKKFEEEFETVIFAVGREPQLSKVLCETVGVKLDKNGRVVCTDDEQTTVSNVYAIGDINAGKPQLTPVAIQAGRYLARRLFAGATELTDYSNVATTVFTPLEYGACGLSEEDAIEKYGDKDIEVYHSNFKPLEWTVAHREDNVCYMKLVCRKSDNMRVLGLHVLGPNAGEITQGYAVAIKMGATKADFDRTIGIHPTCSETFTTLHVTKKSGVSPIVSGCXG
Details: not given
With `N#Cc1c(-c2ccc([N+](=O)[O-])cc2)no[n+]1[O-]` [Compound 25, 3-cyano-4-(4-nitrophenyl)-1,2,5-oxadiazole-2-oxide], the IC50 is 2.2 µM.
As for `Cc1c(-c2ccccc2)no[n+]1[O-]` [Compound 50], the “TGR inhibition, potency in words” value was “less potent than compounds 52, 51, and 56”.

Staying with this test, now noted: read-out: TGR IC50.
With `O=Cc1c(-c2ccccc2)no[n+]1[O-]` [Compound 52], the IC50 stood at 0.11 µM.
Same read-out and setting: then `N#Cc1c(-c2ccc(Cl)cc2)no[n+]1[O-]` [Compound 22, 4-(4-chlorophenyl)-3-cyano-1,2,5-oxadiazole-2-oxide], with 4 µM; and `N#Cc1c(-c2ccc(F)cc2)no[n+]1[O-]` [Compound 21, 3-cyano-4-(4-fluorophenyl)-1,2,5-oxadiazole-2-oxide], with 7.9 µM.
On the same count and under the same terms, then `N#Cc1c(-c2cccc([N+](=O)[O-])c2)no[n+]1[O-]` [Compound 55, 3-cyano-4-(3-nitrophenyl)-1,2,5-oxadiazole-2-oxide], with 2.2 µM; and `N#Cc1c(-c2ccc(Br)cc2)no[n+]1[O-]` [Compound 23, 4-(4-bromophenyl)-3-cyano-1,2,5-oxadiazole-2-oxide], with 3.5 µM.
With `Cc1ccc(-c2no[n+]([O-])c2C#N)cc1` [Compound 27, 3-cyano-4-p-tolyl-1,2,5-oxadiazole-2-oxide], the IC50 is 11.2 µM.
With `N#Cc1c(-c2ccc(-c3ccccc3)cc2)no[n+]1[O-]` [Compound 28, 4-(biphenyl-4-yl)-3-cyano-1,2,5-oxadiazole-2-oxide], the IC50 amounted to 15.8 µM.
Take `N#Cc1c(-c2cccc(-c3no[n+]([O-])c3C#N)c2)no[n+]1[O-]` [Compound 43, 4,4′-(1,3-phenylene)bis(3-cyano-1,2,5-oxadiazole-2-oxide)]: the IC50 worked out at 3.5 µM.
On the same count and under the same terms, to `N#Cc1c(-c2ccc(O)cc2)no[n+]1[O-]` [Compound 48, 3-cyano-4-(4-hydroxyphenyl)-1,2,5-oxadiazole-2-oxide] belongs 17.9 µM; to `COc1cccc(-c2no[n+]([O-])c2C#N)c1` [Compound 33, 3-cyano-4-(3-methoxyphenyl)-1,2,5-oxadiazole-2-oxide], 8.9 µM; to `N#Cc1c(-c2ccc(C(F)(F)F)cc2)no[n+]1[O-]` [Compound 24, 3-cyano-4-(4-(trifluoromethyl)phenyl)-1,2,5-oxadiazole-2-oxide], 7.1 µM.
Consider `N#Cc1c(-c2ccccc2)no[n+]1[O-]` [Compound 49, reference compound], for which the IC50 worked out at 6.3 µM.
With `N#Cc1c(-c2cccc(C(F)(F)F)c2)no[n+]1[O-]` [Compound 32, 3-cyano-4-(3-(trifluoromethyl)phenyl)-1,2,5-oxadiazole-2-oxide], the half-maximal inhibitory concentration (IC50) was found to be 2.5 µM.
The same measure, in the same setting: to `N#Cc1c(-c2cccc(Br)c2)no[n+]1[O-]` [Compound 31, 4-(3-bromophenyl)-3-cyano-1,2,5-oxadiazole-2-oxide] belongs 2.8 µM.
Consider `N#Cc1c(-c2ccc(F)c(Br)c2)no[n+]1[O-]` [Compound 35, 4-(3-bromo-4-fluorophenyl)-3-cyano-1,2,5-oxadiazole-2-oxide], for which the IC50 is 2.8 µM.
On to `N#Cc1c(-c2cccc(Cl)c2)no[n+]1[O-]` [Compound 30, 4-(3-chlorophenyl)-3-cyano-1,2,5-oxadiazole-2-oxide], for which the IC50 is 3.5 µM.
As to `COc1ccccc1-c1no[n+]([O-])c1C#N` [Compound 34, 3-cyano-4-(2-methoxyphenyl)-1,2,5-oxadiazole-2-oxide], the IC50 worked out at 7.9 µM.
Consider `N#Cc1c(-c2cc(F)cc(-c3no[n+]([O-])c3C#N)c2)no[n+]1[O-]` [Compound 45, 4,4′-(5-fluoro-1,3-phenylene)bis(3-cyano-1,2,5-oxadiazole-2-oxide)], for which the IC50 was 0.48 µM.
Same read-out and setting: then `N#Cc1c(-c2cccc(O)c2)no[n+]1[O-]` [Compound 46, 3-cyano-4-(3-hydroxyphenyl)-1,2,5-oxadiazole-2-oxide], with 7.1 µM; and `COc1ccc(-c2no[n+]([O-])c2C#N)cc1` [Compound 26, 3-cyano-4-(4-methoxyphenyl)-1,2,5-oxadiazole-2-oxide], with 10 µM; and `[O-][n+]1onc(-c2ccccc2)c1CO` [Compound 51], with 11.2 µM.
For `COc1cc(-c2no[n+]([O-])c2C#N)cc(OC)c1OC` [Compound 38, 3-cyano-4-(3,4,5-trimethoxyphenyl)-1,2,5-oxadiazole-2-oxide], the IC50 came to 8.9 µM.

The subject of a further test is freshly perfused S. mansoni worms. In words: ex vivo parasite killing assay. The format is cell-based.
Details: not given
Turning to `N#Cc1c(-c2cccc(-c3no[n+]([O-])c3C#N)c2)no[n+]1[O-]` [Compound 43, 4,4′-(1,3-phenylene)bis(3-cyano-1,2,5-oxadiazole-2-oxide)], the “worms judged to be dead” value is recorded as 100%.
Turning to `N#Cc1c(-c2cc(F)cc(-c3no[n+]([O-])c3C#N)c2)no[n+]1[O-]` [Compound 45, 4,4′-(5-fluoro-1,3-phenylene)bis(3-cyano-1,2,5-oxadiazole-2-oxide)], the “worms judged to be dead” value was found to be 100%.

Still in this test, the particulars now being: compound at 10 μM, RPMI 1640, 10% FCS, pH 7.
Regarding `N#Cc1c(-c2ccccc2)no[n+]1[O-]` [Compound 49, reference compound], the “Approximate ET100 (time for 100% of the worms to die)” value is 16 to 18 h.
